The values below come from BindingDB's records for doi:10.1021/jm400664x (Washington University, 2013).

The target of the experiment is T1, Vesicular acetylcholine transporter (Homo sapiens, UniProt Q16572).
T1 sequence (Q16572 whole entry): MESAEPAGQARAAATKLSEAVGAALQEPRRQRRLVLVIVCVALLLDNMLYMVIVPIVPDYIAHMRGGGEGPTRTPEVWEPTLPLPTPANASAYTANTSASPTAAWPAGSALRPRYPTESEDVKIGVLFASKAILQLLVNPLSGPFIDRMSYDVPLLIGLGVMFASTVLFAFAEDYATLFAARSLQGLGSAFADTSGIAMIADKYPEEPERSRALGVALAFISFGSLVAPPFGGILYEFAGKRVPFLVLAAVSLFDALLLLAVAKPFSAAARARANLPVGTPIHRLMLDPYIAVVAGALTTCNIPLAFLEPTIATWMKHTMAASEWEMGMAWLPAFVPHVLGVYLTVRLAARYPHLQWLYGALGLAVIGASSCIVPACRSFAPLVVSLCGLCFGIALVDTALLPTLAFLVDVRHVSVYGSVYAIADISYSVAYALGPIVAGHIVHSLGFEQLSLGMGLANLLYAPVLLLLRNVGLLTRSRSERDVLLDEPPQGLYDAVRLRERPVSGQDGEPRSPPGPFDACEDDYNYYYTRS
The experiment in a line: Displacement of (-)-[3H]vesamicol from human VAChT expressed in rat PC12 cell membrane after 20 hrs.

With `Cn1cccc1C(=O)C1CCN([C@@H]2Cc3cccc(N)c3C[C@H]2O)CC1`, the Ki (commonly a measure of affinity in units of concentration, obtained from inhibition or displacement) was found to be 2310 nM. That is a single-digit micromolar value.

With `Cn1cccc1C(=O)C1CCN([C@@H]2Cc3c(N)cccc3C[C@H]2O)CC1`, affinity was put at a Ki of 39 nM. Under `O=C(c1ncccc1OCCF)C1CCN([C@@H]2Cc3ccccc3C[C@H]2O)CC1` stands 76 nM; under `O=C(c1ccc(OCCF)nc1)C1CCN([C@@H]2Cc3ccccc3C[C@H]2O)CC1`, 38 nM; under `CNc1ccc(C(=O)C2CCN([C@@H]3Cc4ccccc4C[C@H]3O)CC2)cc1`, 3 nM. Under `CN(C)c1ccc(C(=O)C2CCN([C@@H]3Cc4ccccc4C[C@H]3O)CC2)cc1` stands 0.93 nM; under `O=C(c1cccnc1F)C1CCN([C@@H]2Cc3ccccc3C[C@H]2O)CC1`, 13 nM. Then `O=C(c1ccc(F)nc1)C1CCN([C@@H]2Cc3ccccc3C[C@H]2O)CC1`, with 26 nM; and `Cn1c(C(=O)C2CCN([C@@H]3Cc4ccccc4C[C@H]3O)CC2)cccc1=O`, with 182 nM. As for `Cn1ccc(C(=O)C2CCN([C@@H]3Cc4ccccc4C[C@H]3O)CC2)cc1=O`, the Ki stood at 66 nM.

With `O=C(c1cncc(F)c1)C1CCN([C@@H]2Cc3ccccc3C[C@H]2O)CC1`, affinity was put at a Ki of 10 nM. This Ki is about 6.6-fold lower than that of the compound before. As to `COc1cccnc1C(=O)C1CCN([C@@H]2Cc3ccccc3C[C@H]2O)CC1`, the Ki worked out at 121 nM. Under `O=C(c1cccnc1)C1CCN([C@@H]2Cc3ccccc3C[C@H]2O)CC1` stands 24 nM; under `Cn1ccc(C(=O)C2CCN([C@@H]3Cc4ccccc4C[C@H]3O)CC2)c1`, 27 nM. Then `Cn1cccc1C(=O)C1CCN([C@@H]2Cc3ccccc3C[C@H]2O)CC1`, with 18 nM.
